Experimental findings from patent US10117903B1, “Method for regulating cancer stem cell growth by inhibiting phosphorylation of 120th threonine residue of TSPYL5 protein, a composition containing the peptide sequence functioning to inhibit the phosphorylation and a use thereof” (Korea Atomic Energy Research Institute, priority 2016, dated 2018) are described below.

Type in all cases: cell-based
The subject of assay [1] is A549 cells. In words: Sphere formation after peptide treatment. As to conditions: 10 μM of each peptide, 10 days, compared with the control. The procedure:
To investigate the capacity of TSPYL5 peptide to inhibit the sphere formation, 2×10^4 A549 cells (non-small cell lung cancer cells) were suspended in DMEM (Invitrogen) containing stem cell-permissive medium. 20 ng/ml of EGF, 20 ng/ml of basic fibroblast growth factor (bFGF) and B27 serum-free supplement (Invitrogen) were mixed with DMEM-F12 (Invitrogen). The cells were distributed in the 96 well plate pre-coated with 0.8% agar (one cell/well), to which 10 μM of each peptide was treated, followed by culture. The cells were cultured in a 37° C. 5% CO2 incubator for 10 days. Then, the sphere formation was observed.

Assay [2] concerns A549 cells. The experiment in a line: Matrigel transwell invasion assay after peptide treatment. As to conditions: 10 μM peptide, matrigel-coated transwell, compared with the control. The procedure: (§1) The mixture was loaded in the transwell upper chamber. In the lower chamber, 500 μl of RPMI1640 supplemented with 7% FBS was loaded. Then, the two chambers were combined together. The cells were cultured in a 37° C. 5% CO2 incubator for 40 hours. The upper chamber membrane was wiped with cotton swabs, stained with crystal violet, and then observed under microscope.
(§2) For invasion assay, the transwell upper chamber was coated with 100 μl of matrigel (20 μg/well; BD Biosciences). Then, the rest of the process was the same as described in the migration assay above. The cells stained with crystal violet were eluted with 500 μl of 10% acetic acid. OD600 was measured to calculate the relative migration/invasion value of A549 cells.

Assay [3] deals with A549 cells. The experiment in a line: Transwell migration assay (cancer cell metastasis) after peptide treatment. As to conditions: 10 μM peptide, 40 hours, compared with the control. On the procedure: as §1, §2
Assay [4] deals with A549 cells. In words: Cancer cell proliferation (colony-forming ability) after peptide treatment. As to conditions: 10 μM of each peptide, 8 days, crystal violet staining, compared with DMSO control. The procedure:
Particularly, 1×10^3 A549 cells were distributed on a 35 mm plate, which were treated with 10 μM of each peptide. As for the control, DMSO was treated thereto, followed by culture in a 37° C. 5% CO2 incubator for 8 days. The cells were stained with 0.5% crystal violet for 10 minutes. The cells were washed with PBS several times and then cell proliferation was investigated.

The test system of assay [5] is TSPYL5. The experiment in a line: Ubiquitination assay of TSPYL5. On the procedure:
H460 cells were transfected with pcDNA3.1/TSPYL5 (wild-type) and pcDNA3.1/TSPYL5-120A constructed in Example 1. 48 hours later, 10 μM MK2206 was treated to the cells for 1 hour and then the cells were recovered. A protease inhibitor was added to a cell lysis solution (2% SDS, 150 mM NaCl, 10 mM Tris-HCl, pH 8.0), followed by mixing. 100 μl of the solution was added to the cells. The cells were lysed by using a sonicator. Centrifugation was performed at 13000 rpm. The supernatant was obtained, which was diluted in a diluting solution (0.01% SDS, 1.1% Triton X-100, 1.2 mM EDTA, 16.7 mM Tris-HCl (pH8.1), 167 mM NaCl) at 1/10, followed by reaction at 4° C. for 30 minutes. TSPYL5 or ubiquitin specific antibody was added thereto, followed by reaction for overnight to induce protein binding. Protein A/G agarose beads were added thereto, followed by reaction for 4 hours. The protein was washed with washing buffer (10 mM Tris-HCl pH 8.0, 1 M NaCl, 1 mM EDTA, 1% NP40) twice. The protein was mixed with loading buffer and heated at 95° C. Samples were loaded, followed by reaction with TSPYL5 or ubiquitin specific antibody to confirm the protein expression.

Assay [6] deals with TSPYL5 protein. In words: TSPYL5 expression after inhibition of AKT phosphorylation (PCR and Western blotting). As to conditions: A549 cells. The procedure: In addition, 20 μM of MK2206 (Santa Cruze Biotechnology), the AKT (serine/threonine protein kinase) inhibitor, was treated thereto, followed by investigation of the inhibition of AKT phosphorylation and the inhibition of TSPYL5 expression.
Western blotting was performed as follows in order to investigate the protein expression. Lysis buffer (0.05 M Tris-Cl (pH7.4), 0.15 M NaCl, 0.25% deoxycholic acid, 1% NP-40, 1 mM EDTA, and protease inhibitor cocktail) was added to the target cells, followed by reaction at 4° C. for 30 minutes. The cell lysate was centrifuged at 4° C. to obtain the supernatant. The supernatant was quantified. 40 μg of each protein was loaded on SDS-gel, followed by electrophoresis. The proteins were transferred onto nitrocellulose membrane, followed by blocking with BSA containing buffer at room temperature for 30 minutes. Then, the membrane was reacted with the primary antibody PTEN (1:1000), TSPYL5 (Santa Cruz), ALDH1A1, ALDH1A3 (Abcam), CD44, and β-actin, or GAPDH (CST) for 4 hours. Then, the membrane was reacted with the secondary antibody (1:10000). The nitrocellulose membrane was washed 5 times with PBS, followed by sensitization on the film with the detection solution. […]
On the technique in general: Immunoblotting shows a protein as a band on a membrane.

In assay [7] the test system is A549 cells. In words: Western blotting after AKT/PI3K inhibitor treatment. As to conditions: 10 μM MK2206 or 50 μM LY294002, Western blotting. The procedure:
Western blotting was performed as follows in order to investigate the protein expression. Lysis buffer (0.05 M Tris-Cl (pH7.4), 0.15 M NaCl, 0.25% deoxycholic acid, 1% NP-40, 1 mM EDTA, and protease inhibitor cocktail) was added to the target cells, followed by reaction at 4° C. for 30 minutes. The cell lysate was centrifuged at 4° C. to obtain the supernatant. The supernatant was quantified. 40 μg of each protein was loaded on SDS-gel, followed by electrophoresis. The proteins were transferred onto nitrocellulose membrane, followed by blocking with BSA containing buffer at room temperature for 30 minutes. Then, the membrane was reacted with the primary antibody PTEN (1:1000), TSPYL5 (Santa Cruz), ALDH1A1, ALDH1A3 (Abcam), CD44, and β-actin, or GAPDH (CST) for 4 hours. Then, the membrane was reacted with the secondary antibody (1:10000). The nitrocellulose membrane was washed 5 times with PBS, followed by sensitization on the film with the detection solution.
(§3) 1×10^5 A549 cells placed on the culture dish with the cover glass were treated with 10 μM of MK2206 (AKT inhibitor) and 50 μM of LY294002 (PI3K inhibitor) for 4 hours. The cells were fixed in 4% paraformaldehyde solution for 20 minutes. Then, the cover glass was washed with PBS three times and then treated with 0.5% TritonX-100 solution for 5 minutes. The cover glass was washed again with PBS three times. The cells were treated with 1% BSA for 2 hours, followed by reaction with the primary antibody TSPYL5 (Santa Cruz) diluted in PBS buffer at the ratio of 1:100 for 2 hours. Then, the cells were reacted with the secondary antibody Rabbit (Cell Signaling Technology) diluted at the ratio of 1:1000 for 1 hour. The cells were washed with PBS three times, and then the nucleus was stained with DAPI solution for 5 minutes. The location and the amount of TSPYL5 expression were investigated under fluorescent microscope.
Western blotting was also performed by the same manner as described in Experimental Example <1-1>. As a result, when AKT or PI3K inhibitor was treated to the cells, the expressions of TSPYL5, phosphorylated AKT, CD44, ALDH1A3, and ALDH1A1 were reduced.

The test system of assay [8] is TSPYL5 protein. The experiment in a line: Location of TSPYL5 expression in cells after AKT/PI3K inhibitor (fluorescent microscope). As to conditions: A549 cells, 10 μM MK2206 or 50 μM LY294002, 4 hours. On the procedure: as §3
Assay [9] deals with TSPYL5 protein. In words: TSPYL5 nuclear expression after SUMOylation inhibition. As to conditions: A549 cells, 3 uM, 2 hours. The procedure:
However, in the cells expressing pcDNA3.1/TSPYL5-120A, the SUMOylation was not observed. To confirm the SUMOylation inhibition, the SUMO1 inhibitor ginkgolic acid (Abcam) was treated to A549 cells at the concentration of 3 uM for 2 hours.

Where [10] appears, read: H460 cells transfected with pcDNA3.1/TSPYL5, 10 μM MK2206, 1 hour.

Where a SMILES comes first, the peptide text is derived from it. The star is where a group is joined. Cbz = O=C(OCc1ccccc1)*

In the case of “SERSAADTVFVGTAG (TS120T) [15 mer peptide containing the 120th residue threonine of TSPYL5]”, the sphere formation entry in assay [1] is reported as “suppressed”; in assay [1] (listed as SEQ. ID. NO: 43), “inhibited”. Besides, the invasion entry in [2] was “reduced”. The “metastasis (migration)” value in assay [3] is recorded as “reduced”. Further, the cell proliferation result in assay [4] is “significantly inhibited”; in [4] (listed as SEQ. ID. NO: 43), “reduced”.
As for `CC(C)C[C@@H](C=O)NC(=O)[C@H](CC(C)C)NC(=O)[C@H](CC(C)C)NC(=O)OCc1ccccc1` [MG132] (Cbz-Leu-Leu-Leu-aldehyde), the “protein degradation of TSPYL5” value in assay [5] (H460 cells, when the 120th amino acid of TSPYL5 was phosphorylated) is given as “suppressed”.
As for “SERSAADDVFVGTAG (TS120D) [phosphorylation analogue mutant peptide in which the 120th T was substituted with D]”, the figures for the sphere formation result in assay [1] and in assay [1] (listed as SEQ. ID. NO: 44) were “suppressed” and “inhibited”, respectively. Also, the invasion entry in [2] is given as “reduced”. Also, in [3], the “metastasis (migration)” value is on record as “reduced”. Also, the cell proliferation entry is “significantly inhibited” in [4] and “reduced” in assay [4] (listed as SEQ. ID. NO: 44).
As to `NC1(c2ccc(-c3nc4ccn5c(=O)[nH]nc5c4cc3-c3ccccc3)cc2)CCC1` [MK2206], the AKT phosphorylation result in assay [6] (20 μM MK2206) is given as “suppressed”. Also, the “expression of TSPYL5 protein” value in assay [6] (20 μM MK2206, time course) is recorded as “inhibited in proportion to the suppression time of AKT phosphorylation”. In assay [7], the “expression of ALDH1A1” value was “reduced”, the “expression of ALDH1A3” value is “reduced”, the “expression of CD44” value is “reduced” and the “expression of TSPYL5” value is on record as “reduced”. Also, the “expression of phosphorylated AKT” value in assay [7] is recorded as “reduced”. Moreover, the “TSPYL5 expression in the nucleus” value in assay [8] was “not expressed in the nucleus”. In addition, in [5] (setting [10]), the “phosphorylation of TSPYL5” value was “inhibited” and the “ubiquitination of TSPYL5” value was “increased”.
On to ginkgolic acid, for which the “TSPYL5 protein expression in the nucleus” value in assay [9] is reported as “not expressed in the nucleus”.
In the case of “SERSSADAVFVGTAG (SERSAADAVFVGTAG; TS120A) [mutant peptide in which the 120th T was substituted with A]”, the sphere formation result in assay [1] is “not much changed”. Further, in assay [2], the invasion result was “did not make any big difference with the control”. In addition, the “metastasis (migration)” value in [3] was “did not make any big difference with the control”. For the same molecule, in [4], the cell proliferation entry is “not changed”.
